Measurements taken from article doi:10.1101/2025.10.30.685675v2 (biorxiv, 2026).

Molecular target: T1, HsDLH (Homo sapiens, UniProt Q96DG6)
T1 construct: gene CMBL; N-terminal His6-Twin-Strep-SUMO tag kept, E. coli BL21(DE3), Ni-NTA
T1 sequence (Q96DG6 1-245): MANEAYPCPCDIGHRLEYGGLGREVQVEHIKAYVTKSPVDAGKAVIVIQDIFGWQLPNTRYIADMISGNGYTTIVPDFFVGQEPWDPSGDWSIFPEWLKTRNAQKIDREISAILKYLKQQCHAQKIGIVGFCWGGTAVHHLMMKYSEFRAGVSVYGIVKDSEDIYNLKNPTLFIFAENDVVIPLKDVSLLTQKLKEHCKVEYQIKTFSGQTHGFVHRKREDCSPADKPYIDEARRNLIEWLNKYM
Type: biochemical

CCOP(=O)(OCC)Oc1ccc2c(c1)Oc1cc(OP(=O)(OCC)OCC)ccc1C21OC(=O)c2ccccc21 [FDDEP]
KM: displays very weak activity towards the fluorogenic phosphotriester FDDEP
